{"source": "ChEMBL document CHEMBL5209583", "about": "“pH biosensor based assay for SLC9B2 using HEK-293 SLC9B2 OE cells” (2022)", "target": "T1, Sodium/hydrogen exchanger 9B2 (Homo sapiens, UniProt Q86UD5)", "T1 sequence (Q86UD5 whole entry)": "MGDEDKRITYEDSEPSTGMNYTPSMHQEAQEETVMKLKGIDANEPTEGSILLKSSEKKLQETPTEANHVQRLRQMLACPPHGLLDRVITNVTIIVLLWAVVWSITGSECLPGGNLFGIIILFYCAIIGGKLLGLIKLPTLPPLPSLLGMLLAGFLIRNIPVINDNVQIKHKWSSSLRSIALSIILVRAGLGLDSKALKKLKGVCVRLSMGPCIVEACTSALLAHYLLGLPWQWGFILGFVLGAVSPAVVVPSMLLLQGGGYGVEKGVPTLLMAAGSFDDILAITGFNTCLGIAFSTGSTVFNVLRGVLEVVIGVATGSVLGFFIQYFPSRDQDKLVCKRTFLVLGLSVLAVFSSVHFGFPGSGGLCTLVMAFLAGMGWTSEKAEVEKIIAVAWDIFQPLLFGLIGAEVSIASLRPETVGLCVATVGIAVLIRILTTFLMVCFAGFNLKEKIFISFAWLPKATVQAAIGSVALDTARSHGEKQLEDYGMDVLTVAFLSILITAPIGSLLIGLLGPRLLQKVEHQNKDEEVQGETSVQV", "test": "Inhibition of the Sodium/Hydrogen Exchanger-Like Domain-Containing Protein 2 (NHA2, SLC9B2) as assessed by a sensor pH-sensitive genetically encoded fluorescent sensor (pHAxensor) in HEK-293 cells stably transfected with SLC9B2 (PubChem AID: 1794821)", "type": "functional, cell-based, HEK293"}
{"smiles": "O=C(CCc1ccc(O)cc1)c1c(O)cc(O)cc1O", "note": "[PHLORETIN]", "values": [{"measurement": "IC50", "value": 90, "unit": "µM"}]}
